Assay results as given in patent publication US4680172A, “Devices and methods for treating memory impairment” (Ciba-Geigy Corporation, priority 1985, dated 1987).
“And” between values parts separate entries of the source, which are not always exact repeats. Identical values can stand only once.

Assays:
[1] = Partition coefficient (K) between aqueous phase and mineral oil; format: physicochemical; conditions: pH 10 buffer
Source text: (§1) The partion coefficient (K) of a compound between an aqueous phase and mineral oil has been used as an indication of its potential to diffuse across skin. Permeability appears to be optimal when the partition coefficient is 1. Arecoline in pH 10 buffer (99.9% dissociation to the free base) yielded partition coefficients of 0.756 and 0.654 for concentrations of 1.0 M and 0.01 M, respectively. Thus, arecoline in its free base form is expected to have good in vitro transdermal flux.

[2] = Dissociation to the free base in buffer; format: physicochemical; conditions: pH 10 buffer
Source text: as §1

[3] = Transdermal diffusion (flux) of aqueous arecoline through human cadaver skin, Franz diffusion cell; format: in vitro ADME
Method: In order further to test the permeability of arecoline to human skin, the transdermal diffusion of aqueous arecoline was monitored using human cadaver skin mounted in a Franz diffusion cell; see Current Problems in Dermatology, 7, 58 (1978) and the description of Franz diffusion cells and apparatus published by the Crown Glass Company, a copy of which may be found in the file history of this case. The flux, J, of each solution was calculated from a plot of change in concentration versus time.
The transdermal diffusion of arecoline was studied in several aqueous buffers from pH values of 6.4 to 9.0.
Most of the skin samples were obtained from the back area of human cadavers. There was no systematic study to determine if the choice of donor-side would change the rate; however, it is presumed that the rate will be fastest in portions of the anatomy where the stratum corneum is relatively thin (chest, back, anterior forearm) and slowest where the stratum corneum is thickest (heel of hand, bottom of foot).
Franz diffusion cells utilize the finite dose technique of in vitro drug delivery. Human cadaver skin was mounted in a diffusion chamber where it remined in constant contact with solution on both sides. The stratum corneum was in contact with a thin layer of concentrated drug in solution (donor side). The receiver side contained a constantly stirred, isotonic saline solution maintained at 32° C. Diffusion of the compound was monitored by removing aliquots from the receiver side and analyzing these samples by HPLC.
The human skin used in all experiments was obtained from a medical school. All cadavers were refrigerated at death and excision was performed within 24 hours post-mortem. The skin was first treated with Betadine surgical scrub (Povidone-Iodine solution) and surfactant (the skin was scrubbed if dirty), rinsed with sterile water and then with Betadine rinse solution. The skin was then air-dried and swabbed with mineral oil prior to excision. A dermatome was used for excising the skin to […]. (-350 microns) thickness. Saline solution was used to rinse the excess mineral oil from the skin prior to treatment with Eagle's minimole essential medium (minerals, amino acids and sugars). To this solution, 15% glycerol was added and the skin was allowed to set for two hours. It was then removed from solution, packaged and frozen in liquid N2. The samples, packed in dry ice were shipped in styrofoam containers and kept frozen until use.
For the flux experiments, skin samples were removed from the freezer and thawed immediately prior to use. The samples were examined visually for any tears or holes, then cut into smaller pieces, peeled from the gauze backing and mounted across the diffusion chamber with the stratum corneum side up. The donor-side cap was placed on top and the unit was clamped in place. The receiver-side was filled with a saline solution and stirred. The material in the receiver-side was sterile normal saline solution, which was adjusted to approximate the tonicity of the buffer solution on the donor-side. One ml of the drug solution was pipeted onto the donor-side of the skin and 50 microliter aliguots were withdrawn from the receiver-side at the various time intervals. These samples were injected onto an HPLC column under the aforementioned conditions.
The donor solutions were prepared as 1.0 M (approximately 20% W/V) arecoline HCl or arecoline HBr in a phosphate, citrate, borate buffer adjusted to various pH values. Each flux experiment was repeated three to five times.

[4] = Stability of arecoline in solution; format: physicochemical; conditions: alkaline buffers

## COC(=O)C1=CCCN(C)C1 [arecoline]
[1]; 0.01 M
  partition coefficient (K): 0.654
[1]; 1.0 M
  partition coefficient (K): 0.756
[2]
  dissociation to the free base: 99.9%
[3]; aqueous buffers, pH 6.4 to 9.0
  rate of arecoline diffusion versus pH: increases with increasing pH values
[3]; lower pH values (below 8)
  difference in rate between Caucasian and Negro skin: differences were observed between these two skin types
[3]; pH 6.4 of 1M solution, skin RC (Right Chest), donor N
  Flux: 0.017 mg/cm^2 /hr.
[3]; pH 6.4 of 1M solution, skin donor N
  Mean Flux: 0.017 mg/cm^2 /hr.
[3]; pH 7.0 of 1M solution, does not include the Negro skin
  Mean Flux: 0.069 mg/cm^2 /hr.
[3]; pH 7.0 of 1M solution, skin RB (Right Back), donor C
  Flux: 0.0545 mg/cm^2 /hr. and 0.0678 mg/cm^2 /hr. and 0.0833 mg/cm^2 /hr.
[3]; pH 7.0 of 1M solution, skin RB (Right Back), donor N
  Flux: 0.0101 mg/cm^2 /hr. and 0.0057 mg/cm^2 /hr.
[3]; pH 7.5 of 1M solution, does not include the Negro skin
  Mean Flux: 0.185 mg/cm^2 /hr.
[3]; pH 7.5 of 1M solution, skin RB (Right Back), donor C
  Flux: 0.1651 mg/cm^2 /hr. and 0.1486 mg/cm^2 /hr. and 0.2246 mg/cm^2 /hr. and 0.2003 mg/cm^2 /hr.
[3]; pH 7.5 of 1M solution, skin RB (Right Back), donor N
  Flux: 0.0383 mg/cm^2 /hr.
[3]; pH 8.0 of 1M solution, C and N skin
  Mean Flux: 0.448 mg/cm^2 /hr.
[3]; pH 8.0 of 1M solution, skin LB (Left Back), donor C
  Flux: 0.4524 mg/cm^2 /hr. and 0.3817 mg/cm^2 /hr.
[3]; pH 9.0, across 5 cm^2 in 24 hours
  amount transferred across skin: approximately 85 mgs
[3]; pH 9.0 of 1M solution, C and N skin
  Mean Flux: 0.837 mg/cm^2 /hr.
[3]; pH 9.0 of 1M solution, skin LB (Left Back), donor C
  Flux: 0.8868 mg/cm^2 /hr. and 0.8154 mg/cm^2 /hr.
[3]; pH 9.0 of 1M solution, skin RB (Right Back), donor C
  Flux: 0.8551 mg/cm^2 /hr.
[3]; pH values of 8 and 9
  difference in rate between Caucasian and Negro skin: There does not appear to be any difference in rate
[4]
  stability of the free base in solution: rapidly hydrolizes
